Experimental data reported in patent publication EP0104070A2, “Fungicidal N-phenylcarbamates” (priority 1982, dated 1984).
Like-named read-outs stand apart in the source and are kept apart here.

Assays:
[1] = system: Pyricularia oryzae; format: in vivo
[2] = system: drug-resistant strain of Botrytis cinerea; test: Preventive effect on gray mold of cucumber (Experiment 5), drug-resistant strain; details: cucumber seedlings, spray, mycelial disks, 20°C for 3 days
Experimental: (§2) The disease severity was calculated according to the following equation: [formula]
(§3) The prevention value was calculated according to the following equation: [formula]
(§4) Preventive effect on gray mold of cucumber (Botrytis cinerea):-Plastic pots of 90 ml volume was filled with sandy soil, and seeds of cucumber (var: Sagami-hanjiro) were sowed therein. Cultivation was carried out in a greenhouse for 8 days to obtain cucumber seedlings expanding cotyledons. Onto the resulting seedlings, the test compound formulated in emulsifiable concentrate or wettable powder and diluted with water was sprayed at a rate of 10 ml per pot. […] After the plants were infected by incubating under high humidity at 20°C for 3 days, the rates of disease severity were observed.

[3] = system: drug-sensitive strain of Botrytis cinerea; test: Preventive effect on gray mold of cucumber (Experiment 5), drug-sensitive strain; details: cucumber seedlings, spray, mycelial disks, 20°C for 3 days
Experimental: as §2, §3, §4

[4] = system: drug-resistant strain of Sphaerotheca fuliginea; details: Podosphaera fuliginea, in Cucumis sativus, 240 h, read-out: Prevention value when inoculated with drug-resistant strain (%)
Experimental: (§5) Protective activity test on powdery mildew of cucumber (Sphaerotheca fuliginea):-A flower pot of 90 ml volume was filed with sandy soil, and seeds of cucumber (var: Sagami-hanjiro) were sowed therein. Cultivation was carried out in a greenhouse for 8 days. Onto the resulting seedlings having cotyledons, the test compound formulated in emulsifiable concentrate or wettable powder and diluted with water was sprayed at a rate of 10 ml per pot. […] Ten days thereafter, the infectious state of the plants was observed.
as §2, §3

[5] = system: drug-resistant strain of Cercospora beticola; details: in Beta vulgaris, 240 h, read-out: Prevention value when inoculated with drug-resistant strain (%)
Experimental: as §2, §3
(§6) Preventive effect on cercospora leaf spot of sugarbeet (Cercospora beticola):-A flower pot of 90 ml volume was filled with sandy soil, and seeds of sugarbeet (var: Detroit dark red) were sowed therein. Cultivation was carried out in a greenhouse for 20 days. Onto the resulting seedlings, the test compound formulated in emulsifiable concentrate or wettable powder and diluted with water was sprayed at a rate of 10 ml per pot. […] The pot was covered with a polyvinyl chloride sheet to make a condition of high humidity, and cultivation was continued in the greenhouse for 10 days.

[6] = system: drug-sensitive strain of Cercospora beticola; details: in Beta vulgaris, 240 h, read-out: Prevention value when inoculated with drug-sensitive strain (%)
Experimental: as §2, §3, §6

[7] = system: drug-sensitive strain of Sphaerotheca fuliginea; details: Podosphaera fuliginea, in Cucumis sativus, 240 h, read-out: Prevention value when inoculated with drug-sensitive strain (%)
Experimental: as §5, §2, §3

[8] = system: wheat (var: Norin No. 61); test: Phytotoxicity to crop plants (Experiment 9), wheat; format: in vivo; parameters: key: -: No abnormality; +: Abnormality due to phytotoxicity observed in a part of crop plants; ++: Abnormality due to phytotoxicity observed in entire crop plants; +++: Crop plants withered due to phytotoxicity
Excerpt: (§1) Phytotoxicity to crop plants:-

[9] = system: peanut (var: Chiba hanryusei); test: Phytotoxicity to crop plants (Experiment 9), peanut; format: in vivo; parameters: key: -: No abnormality; +: Abnormality due to phytotoxicity observed in a part of crop plants; ++: Abnormality due to phytotoxicity observed in entire crop plants; +++: Crop plants withered due to phytotoxicity; details: spray, 1000 ppm active ingredient, 10 days
Excerpt: as §1

[10] = system: apple (var: Kogyoku); test: Phytotoxicity to crop plants (Experiment 9), apple; format: in vivo; parameters: key: -: No abnormality; +: Abnormality due to phytotoxicity observed in a part of crop plants; ++: Abnormality due to phytotoxicity observed in entire crop plants; +++: Crop plants withered due to phytotoxicity
Excerpt: as §1

[11] = system: drug-resistant strain of Mycosphaerella melonis; details: cucumber seedlings, spray, 200 ppm active ingredient, 25°C for 4 days
Experimental: as §2, §3
(§7) Preventive effect on gummy stem blight of cucumber (Mycosphaerella melonis):-Plastic pots of 90 ml volume was filled with sandy soil, and seeds of cucumber (var: Sagami-hanjiro) were sowed therein. Cultivation was carried out in a greenhouse for 8 days to obtain cucumber seedlings expanding cotyledons. Onto the resulting seedlings, the test compound formulated in emulsifiable concentrate or wettable powder and diluted with water was sprayed at a rate of 10 ml per pot. […] After the plants were infected by incubating under high humidity at 25°C for 4 days, the rates of disease severity were observed.

[12] = system: drug-sensitive strain of Cercospora arachidicola; details: peanut seedlings, spray, 10 days
Experimental: as §2, §3
(§8) Preventive effect on brown leaf-spot of peanut (Cercospora arachidicola):-
(§9) A plastic pot of 90 ml volume was filled with sandy soil, and seeds of peanut (var: Chiba hanryusei) were sowed therein. Cultivation was carried out in a greenhouse for 14 days. Onto the resulting seedlings, the test compound formulated in emulsifiable concentrate or wettable powder and diluted with water was sprayed at a rate of 10 ml per pot. […] The resulting plants were covered with a polyvinyl chloride sheet to make a humide condition and cultivated in the greenhouse for 10 days.

[13] = system: drug-resistant strain of Cercospora arachidicola; details: peanut seedlings, spray, 10 days
Experimental: as §2, §3, §8, §9

[14] = system: drug-sensitive strain of Mycosphaerella melonis; details: cucumber seedlings, spray, 200 ppm active ingredient, 25°C for 4 days
Experimental: as §2, §3, §7

[15] = system: drug-sensitive strain of Penicillium italicum; test: Preventive effect on green mold of orange (Experiment 7), drug-sensitive strain; details: orange fruits immersed for 1 minute, 200 ppm active ingredient, 24 days
[16] = system: drug-resistant strain of Penicillium italicum; test: Preventive effect on green mold of orange (Experiment 7), drug-resistant strain; details: orange fruits immersed for 1 minute, 200 ppm active ingredient, 24 days
[17] = system: drug-sensitive strain of Venturia nashicola; test: Preventive effect on scab of pear (Experiment 3), drug-sensitive strain; details: pear seedlings, spray, 200 ppm active ingredient
Experimental: as §2, §3
(§10) Preventive effect on scab of pear (Venturia nashicola):-
(§11) A plastic pot of 90 ml volume was filled with sandy soil, and seeds of pear (var: Chojuro) were sowed therein. Cultivation was carried out in a greenhouse for 20 days. Onto the resulting seedlings, the test compound formulated in emulsifiable concentrate or wettable powder and diluted with water was sprayed at a rate of 10 ml per pot. […] The resulting plants were placed at 20°C under a condition of high humidity for 3 days and then at 20°C under irradiation with a fluorescent lamp for 20 days.

[18] = system: drug-resistant strain of Venturia nashicola; test: Preventive effect on scab of pear (Experiment 3), drug-resistant strain; details: pear seedlings, spray, 200 ppm active ingredient
Experimental: as §2, §3, §10, §11

[19] = spray, 1000 ppm active ingredient, 10 days

Structure (SMILES)	Prevention value when inoculated with drug-resistant strain (%) ([2]; 200 ppm active ingredient)	Prevention value when inoculated with drug-sensitive strain (%) ([3]; 200 ppm active ingredient)	pest or weed control at 200 ppm [4]	pest or weed control at 200 ppm [5]	pest or weed control at 200 ppm [6]	pest or weed control at 200 ppm [7]	Phytotoxicity Wheat [8, 19]	Phytotoxicity Peanut [9]	Phytotoxicity Apple [10, 19]	Prevention value when inoculated with drug-resistant strain (%) [11]	Prevention value when inoculated with drug-sensitive strain (%) [14]	also measured
CCOP(=O)(Sc1ccccc1)Sc1ccccc1 [Edifenphos]												Prevention value (%) ([1]; in vivo): 97%
CCOc1cc(NC(=S)OC)cc(C=NOC)c1OCC [Compound No. 29, (3,4-diethoxy-5-methoxyiminomethyl)thiocarbanilic acid O-methyl ester]												Prevention value when inoculated with drug-resistant strain (%) ([2]; 500 ppm active ingredient): 100%; Prevention value when inoculated with drug-sensitive strain (%) ([3]; 500 ppm active ingredient): 0%
c1ccc2[nH]c(-c3cscn3)nc2c1 [Thiabendazole, 2-(4-thiazolyl)benzimidazole]	0%	100%										
CC(C)OC(=O)Nc1ccccc1 [Propham, isopropyl N-phenylcarbamate]			0%	0%	0%	0%						
COC(=O)Nc1nc2ccccc2[nH]1 [Carbendazim, methyl benz-imidazol-2-ylcarbamate]			0%	0%	100%	100%						
C#CC(C)OC(=O)Nc1cccc(Cl)c1 (centres unmarked) [Chlorbufam, 1-methyl-2-propynyl N-(3-chlorophenyl)carbamate]			0%	0%	0%	0%						
COC(=O)Nc1ccc(Cl)c(Cl)c1 [Swep]							++	+	++			
CCOc1c(Cl)cc(NC(=S)OC)cc1COC [Compound No. 13]	100%	0%					-	-	-	100%	0%	Prevention value when inoculated with drug-sensitive strain (%) ([12]; 200 ppm active ingredient): 0%; Prevention value when inoculated with drug-resistant strain (%) ([13]; 200 ppm active ingredient): 97%; Prevention value (%) ([1]; rice seedlings of 3-leaf stage, spray, 1000 ppm active ingredient, 28°C for 3 days): 97%
C=CCOC(=O)c1cc(NC(=S)OC)cc(COC)c1OCC [Compound No. 25, (3-methoxymethyl-4-ethoxy-5-allyloxycarbonyl)thiocarbanilic acid O-methyl ester]												Prevention value when inoculated with drug-resistant strain (%) ([2]; 500 ppm active ingredient): 100%; Prevention value when inoculated with drug-sensitive strain (%) ([3]; 500 ppm active ingredient): 0%
CCOc1c(C)cc(NC(=S)OCCF)cc1C [Compound No. 9]	100%	0%	100%	100%	0%	0%	-	-	-	94%	0%	Prevention value when inoculated with drug-sensitive strain (%) [15]: 0%; Prevention value when inoculated with drug-sensitive strain (%) ([12]; 500 ppm active ingredient): 0%; Prevention value when inoculated with drug-resistant strain (%) [16]: 94%; Prevention value when inoculated with drug-resistant strain (%) ([13]; 500 ppm active ingredient): 100%
COC(=O)NC(=S)Nc1ccccc1NC(=S)NC(=O)OC [Thiophanate-methyl, 1,2-bis(3-methoxycarbonyl-2-thioureido)benzene]	0%	100%	0%	0%	100%	100%				0%	100%	Prevention value when inoculated with drug-sensitive strain (%) [15]: 100%; Prevention value when inoculated with drug-sensitive strain (%) ([12]; 200 ppm active ingredient): 100%; Prevention value when inoculated with drug-resistant strain (%) [16]: 0%; Prevention value when inoculated with drug-resistant strain (%) ([13]; 200 ppm active ingredient): 0%; Prevention value when inoculated with drug-sensitive strain (%) [17]: 100%; Prevention value when inoculated with drug-resistant strain (%) [18]: 0%
O=C(Nc1cccc(Cl)c1)OCCCl [CEPC]			0%	0%	0%	0%	-	++	++			
CC(C)OC(=O)Nc1cccc(Cl)c1 [Chlorpropham, isopropyl N-(3-chlorophenyl)carbamate]			0%	0%	0%	0%						
CCOc1c(Cl)cc(NC(=S)OC(C)C)cc1COC [Compound No. 14, (3-chloro-4-ethoxy-5-methoxymethyl)thiocarbanilic acid O-isopropyl ester]	100%	0%	100%			0%	-	-	-	100%	0%	pest or weed control at 500 ppm [5]: 100%; pest or weed control at 500 ppm [6]: 0%
O=C(Nc1cccc(Cl)c1)OCC#CCCl			25%	34%	0%	0%		++				Phytotoxicity Wheat ([8]; in vivo): -; Phytotoxicity Apple ([10]; in vivo): ++
CCCCNC(=O)n1c(NC(=O)OC)nc2ccccc21 [Benomyl, methyl 1-(butylcarbamoyl)benzimidazol-2-ylcarba-mate]	0%	100%	0%	0%	100%	100%				0%	100%	Prevention value when inoculated with drug-sensitive strain (%) [15]: 100%; Prevention value when inoculated with drug-sensitive strain (%) ([12]; 200 ppm active ingredient): 100%; Prevention value when inoculated with drug-resistant strain (%) [16]: 0%; Prevention value when inoculated with drug-resistant strain (%) ([13]; 200 ppm active ingredient): 0%; Prevention value when inoculated with drug-sensitive strain (%) [17]: 100%; Prevention value when inoculated with drug-resistant strain (%) [18]: 0%
